Source: ChEMBL document CHEMBL1201862, “PubChem BioAssay data set” (2004)
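96-well plates; 48 h exposure; 5 concentrations. Endpoints by linear interpolation between flanking doses. Not reached: highest tested concentration assigned. GI50 = concentration required for 50% inhibition of growth.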 The source made the active and inactive calls. No stated cut-off is given here; in the data, active = GI50 up to about 1.1 µM and inactive = higher.

Assays:
Assay in all cases: DTP human tumour cell line panel, 48 h
DMS-114 = test system: DMS-114
CAKI-1 = test system: CAKI-1
LXFL 529 = test system: LXFL 529
HOP-62 = test system: HOP-62
LOX IMVI = test system: LOX IMVI
UO-31 = test system: UO-31
SF-539 = test system: SF-539
IGROV-1 = test system: IGROV-1
SNB-19 = test system: SNB-19
HCC 2998 = test system: HCC 2998
K562 = test system: K562
KM-20L2 = test system: KM-20L2
OVCAR-3 = test system: OVCAR-3
A549 = test system: A549
OVCAR-8 = test system: OVCAR-8
HCT-15 = test system: HCT-15
HT-29 = test system: HT-29
UACC-257 = test system: UACC-257
HL-60 = test system: HL-60
EKVX = test system: EKVX
SR = test system: SR
SK-OV-3 = test system: SK-OV-3
RXF 631 = test system: RXF 631
MOLT-4 = test system: MOLT-4
RXF 393 = test system: RXF 393
HCT-116 = test system: HCT-116
NCI-H23 = test system: NCI-H23
ACHN = test system: ACHN
M14 = test system: M14
DMS-273 = test system: DMS-273
SF-295 = test system: SF-295
M19-MEL = test system: M19-MEL
A498 = test system: A498
SNB-75 = test system: SNB-75
RPMI-8226 = test system: RPMI-8226
HOP-18 = test system: HOP-18
UACC-62 = test system: UACC-62
786-0 = test system: 786-0
DLD-1 = test system: DLD-1
OVCAR-5 = test system: OVCAR-5
SW-620 = test system: SW-620
SF-268 = test system: SF-268
CCRF-CEM = test system: CCRF-CEM
NCI-H460 = test system: NCI-H460
KM12 = test system: KM12
U-251 = test system: U-251
SK-MEL-28 = test system: SK-MEL-28
COLO 205 = test system: COLO 205
NCI-H226 = test system: NCI-H226
SNB-78 = test system: SNB-78
HOP-92 = test system: HOP-92
Malme-3M = test system: Malme-3M
OVCAR-4 = test system: OVCAR-4
NCI-H522 = test system: NCI-H522
TK-10 = test system: TK-10
SN12C = test system: SN12C
SK-MEL-2 = test system: SK-MEL-2
SK-MEL-5 = test system: SK-MEL-5

`Cc1c(C(=O)/C=C/c2cccc3ccccc23)[n+]([O-])c2ccccc2[n+]1[O-]` was tested, and the GI50 (DMS-114) was 4.85 µM (inactive), the GI50 (CAKI-1) was 7.85 µM (inactive) and the GI50 (LXFL 529) was 8.02 µM (inactive). For the same molecule, the GI50 (HOP-62) was 15.8 µM (inactive), the GI50 (LOX IMVI) was 7.93 µM (inactive) and the GI50 (UO-31) was 17.3 µM (inactive). The GI50 (SF-539) was 11.4 µM (inactive), the GI50 (IGROV-1) was 12.9 µM (inactive) and the GI50 (SNB-19) was 15.7 µM (inactive). For the same molecule, the GI50 (HCC 2998) was 16.8 µM (inactive), the GI50 (K562) was 4.72 µM (inactive) and the GI50 (KM-20L2) was 14.6 µM (inactive). For the same molecule, the GI50 (OVCAR-3) was 10.7 µM (inactive), the GI50 (A549) was 16.4 µM (inactive) and the GI50 (OVCAR-8) was 11 µM (inactive). For the same molecule, the GI50 (HCT-15) was 12.7 µM, the GI50 (HT-29) was 12.3 µM (inactive) and the GI50 (UACC-257) was 13.5 µM (inactive). For the same molecule, the GI50 (HL-60) was 7.41 µM (inactive), the GI50 (EKVX) was 14.1 µM (inactive) and the GI50 (SR) was 12.7 µM (inactive). The GI50 (SK-OV-3) was 17.3 µM (inactive), the GI50 (RXF 631) was 18.1 µM (inactive) and the GI50 (MOLT-4) was 11.5 µM (inactive). The GI50 (RXF 393) was 10.1 µM (inactive), the GI50 (HCT-116) was 6.12 µM (inactive) and the GI50 (NCI-H23) was 12.8 µM (inactive). The GI50 (ACHN) was 15.3 µM (inactive), the GI50 (M14) was 13.7 µM (inactive) and the GI50 (DMS-273) was 11.7 µM (inactive). The GI50 (SF-295) was 16.1 µM (inactive), the GI50 (M19-MEL) was 11.9 µM (inactive) and the GI50 (A498) was 16.9 µM (inactive). The GI50 (SNB-75) was 13 µM (inactive), the GI50 (RPMI-8226) was 12 µM (inactive) and the GI50 (HOP-18) was 14.4 µM (inactive). The GI50 (UACC-62) was 11.3 µM (inactive), the GI50 (786-0) was 12.6 µM (inactive) and the GI50 (DLD-1) was 10.6 µM (inactive). For the same molecule, the GI50 (OVCAR-5) was 15.2 µM (inactive), the GI50 (SW-620) was 10.4 µM (inactive) and the GI50 (SF-268) was 14.7 µM (inactive). For the same molecule, the GI50 (CCRF-CEM) was 3.2 µM (inactive), the GI50 (NCI-H460) was 15.3 µM (inactive) and the GI50 (KM12) was 14 µM (inactive). For the same molecule, the GI50 (U-251) was 14.8 µM (inactive), the GI50 (SK-MEL-28) was 13 µM (inactive) and the GI50 (COLO 205) was 13.9 µM (inactive). The GI50 (NCI-H226) was 14 µM (inactive), the GI50 (SNB-78) was 6.84 µM (inactive) and the GI50 (HOP-92) was 10.1 µM (inactive). The GI50 (Malme-3M) was 18.6 µM (inactive), the GI50 (OVCAR-4) was 4.47 µM (inactive) and the GI50 (NCI-H522) was 5.9 µM (inactive). For the same molecule, the GI50 (TK-10) was 20.3 µM (inactive) and the GI50 (SN12C) was 14.1 µM (inactive).

`O=C1C(=O)N(c2ccc(Cl)cc2)C(=O)/C(=N/c2cccc3c(=O)[nH][nH]c(=O)c23)C1c1nc2ccccc2o1` (stereo unspecified) was tested, and the GI50 (CAKI-1) was > 100 µM (inactive), the GI50 (LXFL 529) was > 100 µM (inactive) and the GI50 (HOP-62) was > 100 µM (inactive). For the same molecule, the GI50 (LOX IMVI) was > 100 µM (inactive), the GI50 (UO-31) was > 100 µM (inactive) and the GI50 (SF-539) was > 100 µM (inactive). For the same molecule, the GI50 (IGROV-1) was > 100 µM (inactive), the GI50 (SNB-19) was 84.9 µM (inactive) and the GI50 (HCC 2998) was > 100 µM (inactive). The GI50 (K562) was > 100 µM (inactive), the GI50 (KM-20L2) was > 100 µM (inactive) and the GI50 (OVCAR-3) was > 100 µM (inactive). For the same molecule, the GI50 (A549) was > 100 µM (inactive), the GI50 (OVCAR-8) was > 100 µM (inactive) and the GI50 (HCT-15) was > 100 µM. For the same molecule, the GI50 (SK-MEL-2) was > 100 µM (inactive), the GI50 (HT-29) was > 100 µM (inactive) and the GI50 (UACC-257) was > 100 µM (inactive). The GI50 (HL-60) was > 100 µM (inactive), the GI50 (EKVX) was > 100 µM (inactive) and the GI50 (SR) was > 100 µM (inactive). For the same molecule, the GI50 (SK-OV-3) was > 100 µM (inactive), the GI50 (RXF 631) was > 100 µM (inactive) and the GI50 (MOLT-4) was > 100 µM (inactive). For the same molecule, the GI50 (HCT-116) was > 100 µM (inactive), the GI50 (NCI-H23) was > 100 µM (inactive) and the GI50 (ACHN) was > 100 µM (inactive). The GI50 (M14) was > 100 µM (inactive), the GI50 (DMS-273) was > 100 µM (inactive) and the GI50 (SF-295) was > 100 µM (inactive). The GI50 (M19-MEL) was > 100 µM (inactive), the GI50 (A498) was > 100 µM (inactive) and the GI50 (SNB-75) was > 100 µM (inactive). The GI50 (RPMI-8226) was > 100 µM (inactive), the GI50 (HOP-18) was > 100 µM (inactive) and the GI50 (UACC-62) was > 100 µM (inactive). The GI50 (786-0) was > 100 µM (inactive), the GI50 (DLD-1) was > 100 µM (inactive) and the GI50 (OVCAR-5) was > 100 µM (inactive). The GI50 (SW-620) was > 100 µM (inactive), the GI50 (SF-268) was > 100 µM (inactive) and the GI50 (CCRF-CEM) was > 100 µM (inactive). The GI50 (NCI-H460) was > 100 µM (inactive), the GI50 (KM12) was > 100 µM (inactive) and the GI50 (U-251) was > 100 µM (inactive). For the same molecule, the GI50 (SK-MEL-28) was > 100 µM (inactive), the GI50 (COLO 205) was > 100 µM (inactive) and the GI50 (NCI-H226) was > 100 µM (inactive). The GI50 (SNB-78) was > 100 µM (inactive), the GI50 (SK-MEL-5) was > 100 µM (inactive) and the GI50 (HOP-92) was 84.9 µM (inactive). The GI50 (Malme-3M) was > 100 µM (inactive), the GI50 (OVCAR-4) was > 100 µM (inactive) and the GI50 (TK-10) was > 100 µM (inactive). For the same molecule, the GI50 (SN12C) was > 100 µM (inactive).
